{"source": "patent US4598081A", "about": "“1,3-dioxo-1H-benz(de)isoquinoline-2(3H) butyric acid, pharmacologically acceptable salts thereof and compositions containing the same for treatment of diabetes mellitus complications” (Nauchno-Issledovatelsky Institut Endokrinologii I Obmena …, priority 1985, dated 1986)", "key": {"[1]": {"system": "basal membrane of the muscle capillaries", "assay": "thickness of capillary basal membrane of limb muscles (electron microscope) in rats with alloxan diabetes", "format": "in vivo, Wistar rats", "settings": "for average thickness of the capillary basal membrane of the limb muscles, after administration (M): rats, alloxan diabetes, end of the experiment; for biological activity compared with 1,3-dioxo-1H-benz(de)isoquinoline-2(3H)acetic acid: comparison with prior art compound; for thickness of the basal membrane of the muscle capillaries: after treatment"}, "[2]": {"system": "rats having alloxan diabetes", "assay": "histological examination and biomicroscopy in rats with prolonged alloxan diabetes", "format": "in vivo, Wistar rats", "settings": "for biochemical and morphological indices: experimental animals", "description": "The diabetes was caused by a single-time hypodermic injection of alloxan (\"Chemapol\") in a dose of 150 mg per kg of body weight.\nBiomicroscopy of the conjunctiva was effected with the aid of a microscope fitted with a camera and a flash lamp.\nFor histological examination pieces of the kidney, liver and miocardium were fixed in 10% neutral formaline dehydrated in alcohol, and the paraffin sections were stained with hematoxylin and eosin, and also by the Van-Gizon method."}, "[3]": {"system": "aldose reductase", "assay": "activity of aldose reductase in tissues of animals with alloxan diabetes", "format": "in vivo, Wistar rats", "settings": "for Activity of aldose reductase: alloxan diabetes + compound; for inhibition of aldose reductase: tissues of the experimental animals", "description": "(§1) The experiments were conducted on Wistar rats (males) having a weight of 140 to 160 g. The diabetes was caused by a single-time hypodermic injection of alloxan (\"Chemapol\") in a dose of 150 mg per kg of body weight.\n(§2) The glood glucose was determined by applying a glucoseoxidase method, cholesterine by […], aldose reductase by the method of Hayman and Kinoshita, sorbitol by a sorbitol-dehydrogenase method."}, "[4]": {"system": "sorbitol and fructose in tissues", "assay": "sorbitol and fructose in tissues of animals with alloxan diabetes", "format": "in vivo, Wistar rats", "settings": "for Fructose / Sorbitol: alloxan diabetes", "description": "as §1, §2"}, "[5]": {"system": "rats, rabbits, and dogs", "settings": "in vivo", "description": "(§3) The experiments were performed on rats, rabbits, and dogs.\n(§4) In addition, the action of the proposed drug on the carbohydrate and uropoiesis functions of the liver was also examined.\n(§5) The above indices were examined at the beginning of the experiment and then after 1, 2, 3, 4, 5, and 6 months.\n(§6) At the end of the experiments there were carried out pathomorphological examinations of the lungs, heart, liver, kidneys, adrenal glands, spleen, lymph nodes, intestine, stomach, pancreas, and thyroid glands.\n(§7) On completion of the experiment (six months) the experimental animals were killed: the dogs were killed with thiopental, the rabbits with aeroembolism, and the rats with diethyl ether. Thereafter, the lungs, heart, liver, kidneys, adrenal glands, spleen, lymph nodes, intestine, pancreas and thyroid gland of the killed animals were examined. The material thus obtained was fixed in formole. There were prepared paraffin sections which were then stained with hematoxylin and eosin."}, "[6]": {"system": "Rats", "settings": "rat, in vivo", "description": "as §3, §4, §5, §6, §7"}, "[7]": {"assay": "blood indices (fructose, cholesterin, glucose) in rats with alloxan diabetes", "format": "in vivo, Wistar rats", "description": "as §1, §2"}, "[8]": {"system": "white mice, rats, and dogs", "assay": "acute (\"high\") toxicity, symptoms and overall assessment in mice, rats and dogs", "description": "(§8) Mature animals both male and female, weighting 18 to 22 g (white mice), 180 to 220 g (rats), 11 to 15 kg (dogs) were used for said experiments.\n(§9) The drug was introduced in the form of a starch suspension through a gastric tube.\n(§10) Each dose being examined was tested on 5-6 animals.\n(§11) LD50 determined by the Lichfield and Wilcoxon method, or the Van der Waerden method was used as an index of high toxicity. The animals were kept under observation for 5 days."}, "[9]": {"system": "Dogs", "assay": "chronic toxicity, 6 months peroral, dogs", "settings": "in the dogs only", "description": "as §3, §4, §5, §6, §7"}, "[10]": {"system": "White mice", "assay": "acute (\"high\") toxicity, peroral, white mice", "description": "as §8, §9, §10, §11"}, "[11]": {"system": "Rats", "assay": "acute (\"high\") toxicity, peroral, rats", "description": "as §8, §9, §10, §11"}, "[12]": {"system": "Dogs", "assay": "acute (\"high\") toxicity, peroral, dogs", "settings": "dosage 5500", "description": "as §8, §9, §10, §11"}, "[13]": {"assay": "solubility of the acid and its salts", "format": "physicochemical"}}, "note": "Entries after “also recorded” stand apart in the source; their conditions may differ. Where a name gives a salt, the structure may show the parent alone."}
{"smiles": "O=C(O)CN1C(=O)c2cccc3cccc(c23)C1=O", "note": "[1,3-dioxo-1H-benz(de)isoquinoline-2(3H)acetic acid, reference compound]", "values": [{"measurement": "average thickness of the capillary basal membrane of the limb muscles, after administration (M)", "setting": "[1]", "value": 112, "unit": "nanometers"}]}
{"smiles": "O=C(O)CCCN1C(=O)c2cccc3cccc(c23)C1=O", "note": "[1,3-dioxo-1H-benz(de)isoquinoline-2(3H)butyric acid]", "values": [{"measurement": "kidney histology", "setting": "[2]; 50 mg per kg per day, 30 days", "value": "renal glomerulus became more plethoric, the epithelium of the tubules had a more clearly defined boundary, and the protoplasm became less vacuolized and granular"}, {"measurement": "liver histology", "setting": "[2]; 50 mg per kg per day, 30 days", "value": "structure of the lobes and radial location of trabeculas in the liver became clearly defined"}, {"measurement": "myocardium histology", "setting": "[2]; 50 mg per kg per day, 30 days", "value": "Dystrophic lesion in the myocardium was less pronounced"}, {"measurement": "vascular pattern of the iris", "setting": "[2]; 50 mg per kg per day, 30 days", "value": "Inflation and convolution of the vessels decreased, and the blood flow became homogeneous"}, {"measurement": "biochemical and morphological indices", "setting": "[2]", "value": "considerable improvements"}, {"measurement": "Activity of aldose reductase", "setting": "[3]; Aorta", "value": "7.4 ± 0.8 μmol substruct. per mg of protein"}, {"measurement": "Activity of aldose reductase", "setting": "[3]; Cryst. lens", "value": "3.4 ± 0.30 μmol substruct. per mg of protein"}, {"measurement": "Activity of aldose reductase", "setting": "[3]; Nerve", "value": "25.5 ± 2.1 μmol substruct. per mg of protein"}, {"measurement": "inhibition of aldose reductase", "setting": "[3]", "value": "inhibiting properties with respect to aldose reductase; also recorded: inhibitors of aldose reductase"}, {"measurement": "Fructose", "setting": "[4]; Cryst. lens", "value": "2.85 ± 0.56 μmol per g of tissue"}, {"measurement": "Sorbitol", "setting": "[4]; Cryst. lens", "value": "7.18 ± 0.65 μmol per g of tissue"}, {"measurement": "Fructose", "setting": "[4]; Nerve", "value": "3.25 ± 0.73 μmol per g of tissue"}, {"measurement": "Sorbitol", "setting": "[4]; Nerve", "value": "9.8 ± 0.94 μmol per g of tissue"}, {"measurement": "quantity of sorbitol and fructose in the examined tissues", "setting": "[4]; Table 5", "value": "has decreased"}, {"measurement": "changes in the anthropological data", "setting": "[5]", "value": "no changes in the anthropological data"}, {"measurement": "irritating action on the liver and kidneys", "setting": "[5]", "value": "slight non-specific irritating action on the liver and kidneys"}, {"measurement": "lesions in the liver and kidneys", "setting": "[5]", "value": "slight lesions in the liver and kidneys"}, {"measurement": "lesions on dissection", "setting": "[5]", "value": "no lesions"}, {"measurement": "local lesion in the liver and kidneys", "setting": "[5]", "value": "slight local lesion in the liver and kidneys"}, {"measurement": "morphological lesions in organs", "setting": "[5]", "value": "did not cause morphological lesions in many organs"}, {"measurement": "change in blood-formation function, composition of the peripheric blood and urogenous function of the liver", "setting": "[6]", "value": "did not lead to a change"}, {"measurement": "change of the level of glucose (blood)", "setting": "[7]", "value": "did not change"}, {"measurement": "cholesterin (blood)", "setting": "[7]; p<0.005", "value": "100±7.1", "unit": "mg %"}, {"measurement": "fructose (blood)", "setting": "[7]; p<0.02", "value": "2.26±0.16", "unit": "mg %"}, {"measurement": "level of glucose (blood)", "setting": "[7]; p<0.5", "value": "340.1±27.8", "unit": "mg %"}, {"measurement": "time until animals laid down on the side, comatose", "setting": "[8]; acute lethal poisoning", "value": "6 to 8", "unit": "h"}, {"measurement": "time within which the animals died", "setting": "[8]; as a rule, during the first 24-26 hours", "value": "24 to 26", "unit": "h"}, {"measurement": "overall acute toxicity assessment", "setting": "[8]; peroral", "value": "substance with low-toxicity"}, {"measurement": "vessel permeability in the renal glomerulus", "setting": "[9]", "value": "elevated vessel permeability in the renal glomerulus"}, {"measurement": "Percentage of animal death (died/in group)", "setting": "[10]; dosage 3750", "value": "3/5"}, {"measurement": "Percentage of animal death (died/in group)", "setting": "[10]; dosage 4000", "value": "2/5"}, {"measurement": "Percentage of animal death (died/in group)", "setting": "[10]; dosage 4500", "value": "4/5"}, {"measurement": "Percentage of animal death (died/in group)", "setting": "[10]; dosage 4750", "value": "5/5"}, {"measurement": "Percentage of animal death (died/in group)", "setting": "[10]; dosage 5000", "value": "3/5"}, {"measurement": "Percentage of animal death (died/in group)", "setting": "[10]; dosage 5250", "value": "5/5"}, {"measurement": "Percentage of animal death (died/in group)", "setting": "[11]; dosage 3000", "value": "0/5"}, {"measurement": "Percentage of animal death (died/in group)", "setting": "[11]; dosage 3500", "value": "2/5"}, {"measurement": "Percentage of animal death (died/in group)", "setting": "[11]; dosage 4000", "value": "1/4"}, {"measurement": "Percentage of animal death (died/in group)", "setting": "[11]; dosage 4500", "value": "3/5"}, {"measurement": "Percentage of animal death (died/in group)", "setting": "[11]; dosage 5000", "value": "4/7"}, {"measurement": "Percentage of animal death (died/in group)", "setting": "[11]; dosage 5500", "value": "4/5"}, {"measurement": "Percentage of animal death (died/in group)", "setting": "[11]; dosage 6000", "value": "5/5"}, {"measurement": "Percentage of animal death (died/in group)", "setting": "[12]", "value": "3/5"}, {"measurement": "solubility in alcohol", "setting": "[13]; alcohol, when heated", "value": "soluble"}, {"measurement": "solubility in dimethyl-formamide", "setting": "[13]; dimethyl-formamide, when heated", "value": "soluble"}, {"measurement": "solubility in soda and alkali solutions", "setting": "[13]; soda and alkali solutions", "value": "soluble in soda and alkali solutions"}, {"measurement": "solubility in water", "setting": "[13]", "value": "water-insoluble"}, {"measurement": "decrease of thickness of the basal membrane of the muscle capillaries", "setting": "[1]; 50 mg per kg per day, 30 days", "value": "almost one and a half times"}, {"measurement": "microangiopathy", "setting": "[1]; 50 mg per kg per day, 30 days", "value": "Microangiopathy became less pronounced"}, {"measurement": "biological activity compared with 1,3-dioxo-1H-benz(de)isoquinoline-2(3H)acetic acid", "setting": "[1]", "value": "biologically more active than the prior art compound"}, {"measurement": "thickness of the basal membrane of the muscle capillaries", "setting": "[1]; rats having alloxan diabetes for 12 months", "value": "100-120 nm"}, {"measurement": "thickness of the basal membrane of the muscle capillaries", "setting": "[1]; rats having six months alloxan diabetes", "value": 65, "unit": "nm"}, {"measurement": "average thickness of the capillary basal membrane of the limb muscles, after administration (M)", "setting": "[1]", "value": 98.3, "unit": "nanometers"}]}
{"smiles": "O=C(O)CCCN1C(=O)c2cccc3cccc(c23)C1=O", "note": "[Potassium salt, potassium salt of 1,3-dioxo-1H-benz(de)isoquinoline-2(3H)butyric acid]", "values": [{"measurement": "biochemical and morphological indices", "setting": "[2]", "value": "considerable improvements"}, {"measurement": "inhibition of aldose reductase", "setting": "[3]", "value": "inhibiting properties with respect to aldose reductase; also recorded: inhibitors of aldose reductase"}, {"measurement": "solubility in benzole", "setting": "[13]", "value": "insoluble"}, {"measurement": "solubility in ethyl alcohol", "setting": "[13]", "value": "soluble"}, {"measurement": "solubility in water", "setting": "[13]", "value": "readily soluble"}, {"measurement": "biological activity compared with 1,3-dioxo-1H-benz(de)isoquinoline-2(3H)acetic acid", "setting": "[1]", "value": "biologically more active than the prior art compound"}, {"measurement": "average thickness of the capillary basal membrane of the limb muscles, after administration (M)", "setting": "[1]", "value": 98.6, "unit": "nanometers"}]}
{"smiles": "O=C(O)CCCN1C(=O)c2cccc3cccc(c23)C1=O", "note": "[Sodium salt, sodium salt of 1,3-dioxo-1H-benz(de)isoquinoline-2(3H)butyric acid]", "values": [{"measurement": "biochemical and morphological indices", "setting": "[2]", "value": "considerable improvements"}, {"measurement": "inhibition of aldose reductase", "setting": "[3]", "value": "inhibiting properties with respect to aldose reductase; also recorded: inhibitors of aldose reductase"}, {"measurement": "solubility in benzole", "setting": "[13]", "value": "insoluble"}, {"measurement": "solubility in ethyl alcohol", "setting": "[13]", "value": "slightly soluble"}, {"measurement": "solubility in water", "setting": "[13]", "value": "readily soluble"}, {"measurement": "biological activity compared with 1,3-dioxo-1H-benz(de)isoquinoline-2(3H)acetic acid", "setting": "[1]", "value": "biologically more active than the prior art compound"}, {"measurement": "average thickness of the capillary basal membrane of the limb muscles, after administration (M)", "setting": "[1]", "value": 102, "unit": "nanometers"}]}
